Legend:
[1] = Concentration-ECG (QTcF, HR, PR, QRS) analysis from 24-hour Holter; format: in vivo, human
Procedure: A thorough time-matched (TM∘) ECG parameters analysis in relation with SAR443820 concentrations on Day 1 (SAD-Part 1a) and on Day 14 (MAD Part 2) over 24 hours compared to the baseline prior the first dosing was performed on ECG extracted from 24-hour Holter data.
For Part 1a (SAD) and Part 2 (MAD), the concentration-ECG population will encompass all randomized participants treated by SAR443820 as long as they have at least 1 ECG assessment time-matched with a pharmacokinetic concentration (ECGs centrally read coming from 24-hours Holter ECG). Participants randomized in the placebo group will also be included in the Concentration-ECG population if they have at least 1 non missing change from baseline in ECG parameter. Exposure-response analyses between QTcF parameters (change from time-matched baseline in 24-hours Holter ECG data) and corresponding Compound 1 concentrations were performed using graphical tools and regression methods over 24 hours on Day 1 (SAD-Part 1a) or Day 14 (MAD-Part 2) post-dose. Predictions at selected concentrations were computed using a linear mixed effect model (see Am Heart J. 2014; 168(3):262-72. J Pharmacokinet Pharmacodyn. 2018; 45(3):383-97).

pS166-RIPK1 = target: T1, pS166-RIPK1 (Homo sapiens, UniProt Q13546); experiment: pS166-RIPK1 inhibition in vitro in microglia; format: cell-based
T1 construct: endogenous in cells
T1 sequence (Q13546 1-671): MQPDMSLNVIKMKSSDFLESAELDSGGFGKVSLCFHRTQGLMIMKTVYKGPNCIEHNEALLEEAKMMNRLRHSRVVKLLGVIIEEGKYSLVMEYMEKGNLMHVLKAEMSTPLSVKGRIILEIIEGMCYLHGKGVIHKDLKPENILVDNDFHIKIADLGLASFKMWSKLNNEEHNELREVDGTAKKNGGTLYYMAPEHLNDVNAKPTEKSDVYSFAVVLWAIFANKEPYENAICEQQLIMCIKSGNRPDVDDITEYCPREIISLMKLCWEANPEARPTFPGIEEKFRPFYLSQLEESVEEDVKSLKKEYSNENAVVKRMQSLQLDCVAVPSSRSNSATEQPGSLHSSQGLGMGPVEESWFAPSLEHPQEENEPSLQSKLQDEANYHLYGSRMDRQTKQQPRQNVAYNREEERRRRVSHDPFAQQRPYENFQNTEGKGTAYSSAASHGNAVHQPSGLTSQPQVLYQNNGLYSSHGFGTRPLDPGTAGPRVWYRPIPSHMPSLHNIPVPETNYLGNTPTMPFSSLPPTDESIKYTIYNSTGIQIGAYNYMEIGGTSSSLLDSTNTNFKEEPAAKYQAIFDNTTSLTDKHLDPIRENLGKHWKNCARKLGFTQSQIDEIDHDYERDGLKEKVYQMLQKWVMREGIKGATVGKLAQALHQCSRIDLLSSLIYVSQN

[2] = 6-month rat toxicology study (NOAEL exposure); format: in vivo
[3] = Part 1a Day 1, 10 mg, at Cmax 116.00 ng/ml
[4] = Part 1a Day 1, 20 mg, at Cmax 241.00 ng/ml
[5] = Part 1a Day 1, 30 mg, at Cmax 417.00 ng/ml
[6] = Part 1a Day 1, 40 mg, at Cmax 555.00 ng/ml
[7] = Part 2 Day 14, 10 mg QD, at Cmax 158.00 ng/ml
[8] = Part 2 Day 14, 15 mg BID, at Cmax 268.00 ng/ml
[9] = Part 2 Day 14, 20 mg BID, at Cmax 353.00 ng/ml
[10] = Part 2 Day 14, 20 mg QD, at Cmax 250.00 ng/ml
[11] = 20 mg QD vs 6-month rat toxicology study

CC(C)(C(=O)N1CCOc2c(C#N)cncc2C1)C(F)F [Compound 1, 4-(3,3-difluoro-2,2-dimethyl-propanoyl)-3,5-dihydro-2H-pyrido[3,4-f] [1,4]oxazepine-9-carbonitrile]
Predicted delta Heart Rate vs placebo [1, 3]: −3.68 beats/min
Predicted delta PR Interval vs placebo [1, 3]: 5.87 ms
Predicted delta QRS Duration vs placebo [1, 3]: -0.04 ms
Predicted delta QTcF interval vs placebo [1, 3]: -4.41 ms
Predicted delta Heart Rate vs placebo [1, 4]: −2.62 beats/min
Predicted delta PR Interval vs placebo [1, 4]: 6.70 ms
Predicted delta QRS Duration vs placebo [1, 4]: 0.43 ms
Predicted delta QTcF interval vs placebo [1, 4]: -3.88 ms
Predicted delta Heart Rate vs placebo [1, 5]: −1.11 beats/min
Predicted delta PR Interval vs placebo [1, 5]: 7.88 ms
Predicted delta QRS Duration vs placebo [1, 5]: 1.10 ms
Predicted delta QTcF interval vs placebo [1, 5]: -3.15 ms
Predicted delta Heart Rate vs placebo [1, 6]: 0.06 beats/min
Predicted delta PR Interval vs placebo [1, 6]: 8.80 ms
Predicted delta QRS Duration vs placebo [1, 6]: 1.62 ms
Predicted delta QTcF interval vs placebo [1, 6]: -2.57 ms
Predicted delta Heart Rate vs placebo [1, 7]: 0.25 beats/min
Predicted delta PR Interval vs placebo [1, 7]: -4.63 ms
Predicted delta QRS Duration vs placebo [1, 7]: 2.52 ms
Predicted delta QTcF interval vs placebo [1, 7]: -5.36 ms
Predicted delta Heart Rate vs placebo [1, 8]: −0.26 beats/min
Predicted delta PR Interval vs placebo [1, 8]: -4.53 ms
Predicted delta QRS Duration vs placebo [1, 8]: 3.00 ms
Predicted delta QTcF interval vs placebo [1, 8]: -3.74 ms
Predicted delta Heart Rate vs placebo [1, 9]: −0.65 beats/min
Predicted delta PR Interval vs placebo [1, 9]: -4.46 ms
Predicted delta QRS Duration vs placebo [1, 9]: 3.37 ms
Predicted delta QTcF interval vs placebo [1, 9]: -2.49 ms
Predicted delta Heart Rate vs placebo [1, 10]: −0.18 beats/min
Predicted delta PR Interval vs placebo [1, 10]: -4.55 ms
Predicted delta QRS Duration vs placebo [1, 10]: 2.92 ms
Predicted delta QTcF interval vs placebo [1, 10]: -4.01 ms
Effect on QTcF intervals ([1]; single dose up to 40 mg, repeated dose up to 20 mg BID): No clinically relevant dose-related effects
EC90 (pS166-RIPK1): 64 nM
Human Cmax and AUCtau, fold lower than exposure at NOAEL ([2]; 15 mg BID vs 6-month rat toxicology study): 10 fold
Human AUC0-24 h, fold lower than AUC0-24 at rat NOAEL ([2]; 20 mg BID vs female rats): < 8 fold
Human Cmax, fold lower than Cmax at rat NOAEL ([2]; 20 mg BID vs female rats): < 10 fold
Human AUC0-24, fold lower than exposure at NOAEL [2, 11]: 17 fold
Human Cmax, fold lower than exposure at NOAEL [2, 11]: 15 fold
Cmax ([2]; rat, in vivo, female rats, end of Week 26, 6-month study): 13.1 µM
AUC(0-t) ([2]; rat, in vivo, female rats, end of Week 26, 6-month study, read-out: AUC0-24 at the NOAEL): 126 µM·h
